Residue numbers refer to the chain shown, from its start. Non-standard residues stand in square brackets, D forms with d. Residues, ends and D or L forms follow the SMILES beside them. No end group written: not given here. *: point of attachment. pGlu = O=C1CC[C@@H](C(=O)O)N1; Nle = CCCC[C@H](N)C(=O)O; βAla = NCCC(=O)O; NHPr = CCCN* Some results are limits rather than exact numbers.

The first assay has as its target T1, endogenous human BRS-3 in NCI-N417 cells (Homo sapiens, UniProt P32247).
T1 construct: Agonist Pharmacology at the Endogenous Human BRS-3 in NCI-N417 Cells; endogenous in cells; host or cells: NCI-N417 cells
T1 sequence (P32247 1-399): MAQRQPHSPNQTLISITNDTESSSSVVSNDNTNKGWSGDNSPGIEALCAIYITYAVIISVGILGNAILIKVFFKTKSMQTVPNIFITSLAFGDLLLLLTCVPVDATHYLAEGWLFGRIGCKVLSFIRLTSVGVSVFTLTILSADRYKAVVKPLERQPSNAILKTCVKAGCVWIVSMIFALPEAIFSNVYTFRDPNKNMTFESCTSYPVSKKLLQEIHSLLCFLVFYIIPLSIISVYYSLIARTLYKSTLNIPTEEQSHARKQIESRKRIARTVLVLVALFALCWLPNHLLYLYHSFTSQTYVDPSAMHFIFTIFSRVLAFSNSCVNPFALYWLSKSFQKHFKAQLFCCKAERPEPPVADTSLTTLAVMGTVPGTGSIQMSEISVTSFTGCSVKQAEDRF
The assay can be described thus: Agonist pharmacology, FLIPR intracellular calcium (Fluo-3AM) in NCI-N417 cells. The class given is cell-based.
Details: not given
How it is done: Agonist Pharmacology at the Endogenous Human BRS-3 in NCI-N417 Cells
NCI-N417 cells were seeded into Costar 96 well black walled plates (30,000 cells per well), cultured overnight in RPMI 1640 medium containing 10% foetal calf serum and 1% L-glutamine, and then loaded with the cytoplasmic calcium indicator Fluo-3AM (4 μM) in the presence of 2.5 mM probenecid at 37° C. for 60 min. The cells were then washed 4× with, and finally resuspended in, Tyrode's medium containing 2.5 mM probenecid. Fluorescence was then monitored using a FLIPR (λEX=488 nm, λEM=540 nm) before and after the addition of various ligands (10 pM-10 μM), as described previously (Smart et al (1999). Br. J. Pharmacol. 128:1-4).
Turning to `CCCC[C@H](NC(=O)[C@H](Cc1ccccc1)NC(=O)[C@H](Cc1c[nH]cn1)NC(=O)CNC(=O)[C@@H](NC(=O)[C@H](C)NC(=O)[C@H](Cc1c[nH]c2ccccc12)NC(=O)[C@H](CCC(N)=O)NC(=O)[C@H](N)Cc1ccccc1)C(C)C)C(N)=O` [[D-Phe^1, Nle^9]litorin], the EC50 is 1100 nM.
Same read-out and setting: as for `CCCNC(=O)[C@H](Cc1ccccc1)NC(=O)[C@H](Cc1c[nH]cn1)NC(=O)CNC(=O)[C@@H](NC(=O)[C@H](C)NC(=O)[C@H](Cc1c[nH]c2ccccc12)NC(=O)[C@H](CCC(N)=O)NC(=O)[C@H](N)Cc1ccccc1)C(C)C` [[D-Phe^6, Phe^13]BN(6-13) propylamide] (H-[dF]QWAVGHF-NHPr; N-terminus assumed), the figure is 148 nM; as for `CCCNC(=O)[C@H](CC(C)C)NC(=O)[C@H](Cc1c[nH]cn1)NC(=O)CNC(=O)[C@@H](NC(=O)[C@H](C)NC(=O)[C@H](Cc1c[nH]c2ccccc12)NC(=O)[C@H](CCC(N)=O)NC(=O)[C@H](N)Cc1ccccc1)C(C)C` [[D-Phe^6]BN(6-13) propylaniide], 1380 nM.

The assay is the same for the next values; noted with them: calcium mobilisation, FLIPR, NCI-N417 cells, ligands 10 pM-10 μM; read-out: pEG50 (the source's name) (converted).
For `CCCC[C@H](NC(=O)[C@H](Cc1ccccc1)NC(=O)[C@H](Cc1cnc[nH]1)NC(=O)CCNC(=O)[C@@H](NC(=O)[C@H](C)NC(=O)[C@H](Cc1c[nH]c2ccccc12)NC(=O)[C@H](CCC(N)=O)NC(=O)[C@H](N)Cc1ccc(O)cc1)C(C)C)C(N)=O` [[D-Tyr^6, βAla^11, Phe^13, Nle^14]Bombesin(6-14)] (H-[dY]QWAV[βAla]HF[Nle]-NH2), the EC50 was 9.55 nM.

The assay is the same for the next values; noted with them: calcium mobilisation, FLIPR, NCI-N417 cells; at 10 μM.
As to `CSCC[C@H](NC(=O)[C@H](CC(C)C)NC(=O)[C@H](Cc1cnc[nH]1)NC(=O)CNC(=O)[C@@H](NC(=O)[C@H](C)NC(=O)[C@H](Cc1c[nH]c2ccccc12)NC(=O)[C@H](CCC(N)=O)NC(=O)[C@H](CC(N)=O)NC(=O)CNC(=O)[C@H](CC(C)C)NC(=O)[C@H](CCCN=C(N)N)NC(=O)[C@H](CCC(N)=O)NC(=O)[C@@H]1CCC(=O)N1)C(C)C)C(N)=O` [Bombesin], the Efficacy amounted to 23% at 10 μM.

Staying with this assay, now noted: calcium mobilisation, FLIPR, NCI-N417 cells; efficacy in words.
As to `CSCC[C@H](NC(=O)[C@H](Cc1ccccc1)NC(=O)[C@H](Cc1c[nH]cn1)NC(=O)CNC(=O)[C@@H](NC(=O)[C@H](C)NC(=O)[C@H](Cc1c[nH]c2ccccc12)NC(=O)[C@H](CCC(N)=O)NC(=O)[C@@H]1CCCN1C(=O)CNC(=O)CNC(=O)CNC(=O)[C@@H]1CCC(=O)N1)C(C)C)C(N)=O` [PG-L] ([pGlu]GGGPQWAVGHFM-NH2; C-terminus assumed), the Efficacy entry is listed as “full”.
The same measure, in the same setting: as for `CSCC[C@H](NC(=O)[C@H](Cc1ccccc1)NC(=O)[C@H](Cc1c[nH]cn1)NC(=O)CNC(=O)[C@@H](NC(=O)[C@H](C)NC(=O)[C@H](Cc1c[nH]c2ccccc12)NC(=O)[C@H](CCC(N)=O)NC(=O)[C@@H]1CCCN1C(=O)[C@@H](NC(=O)[C@@H]1CCC(=O)N1)C(C)C)C(C)C)C(N)=O` [Ranantensin] ([pGlu]VPQWAVGHFM-NH2; C-terminus assumed), the entry is “full”.
As for `CCCC[C@H](NC(=O)[C@H](Cc1ccccc1)NC(=O)[C@H](Cc1c[nH]cn1)NC(=O)CNC(=O)[C@@H](NC(=O)[C@H](C)NC(=O)[C@H](Cc1c[nH]c2ccccc12)NC(=O)[C@H](CCC(N)=O)NC(=O)[C@H](N)Cc1ccccc1)C(C)C)C(N)=O` [[D-Phe^1, Nle^9]litorin], the Efficacy result is given as “full”.
On to `CCCNC(=O)[C@H](Cc1ccccc1)NC(=O)[C@H](Cc1c[nH]cn1)NC(=O)CNC(=O)[C@@H](NC(=O)[C@H](C)NC(=O)[C@H](Cc1c[nH]c2ccccc12)NC(=O)[C@H](CCC(N)=O)NC(=O)[C@H](N)Cc1ccccc1)C(C)C` [[D-Phe^6, Phe^13]BN(6-13) propylamide] (H-[dF]QWAVGHF-NHPr; N-terminus assumed), for which the Efficacy result is on record as “full”.
On to `CCCNC(=O)[C@H](CC(C)C)NC(=O)[C@H](Cc1c[nH]cn1)NC(=O)CNC(=O)[C@@H](NC(=O)[C@H](C)NC(=O)[C@H](Cc1c[nH]c2ccccc12)NC(=O)[C@H](CCC(N)=O)NC(=O)[C@H](N)Cc1ccccc1)C(C)C` [[D-Phe^6]BN(6-13) propylaniide], for which the Efficacy result is listed as “full”.
Turning to `CCCC[C@H](NC(=O)[C@H](Cc1ccccc1)NC(=O)[C@H](Cc1c[nH]cn1)NC(=O)CCNC(=O)[C@@H](NC(=O)[C@H](C)NC(=O)[C@H](Cc1c[nH]c2ccccc12)NC(=O)[C@H](CCC(N)=O)NC(=O)[C@H](N)Cc1ccc(O)cc1)C(C)C)C(N)=O` [[D-Tyr^6, βAla^11, Phe^13, Nle^14]Bombesin(6-14)] (H-[dY]QWAV[βAla]HF[Nle]-NH2), the Efficacy result is recorded as “full”.
As for AcNMB(3-10), the Efficacy entry was “full”.
As to neuromedin B [NMB], the Efficacy entry is listed as “full”.

Another assay deals with T2, BRS3 (Homo sapiens, UniProt P32247).
T2 sequence (P32247 1-399): T1 sequence (P32247 1-399)
Assay: not given
Conditions: background statement, in words; cited from earlier work.
Consider `CSCC[C@H](NC(=O)[C@H](CC(C)C)NC(=O)[C@H](Cc1c[nH]cn1)NC(=O)CNC(=O)[C@@H](NC(=O)[C@H](C)NC(=O)[C@H](Cc1c[nH]c2ccccc12)NC(=O)[C@H](Cc1c[nH]cn1)NC(=O)[C@H](CC(N)=O)NC(=O)CNC(=O)[C@H](CCCNC(=N)N)NC(=O)[C@@H]1CCCN1C(=O)[C@H](Cc1ccc(O)cc1)NC(=O)[C@H](CCSC)NC(=O)[C@H](CCCCN)NC(=O)[C@@H](NC(=O)[C@H](CC(C)C)NC(=O)[C@@H](NC(=O)[C@@H](NC(=O)CNC(=O)CNC(=O)CNC(=O)[C@H](C)NC(=O)[C@@H]1CCCN1C(=O)[C@H](CC(C)C)NC(=O)[C@@H]1CCCN1C(=O)[C@@H](N)C(C)C)[C@@H](C)O)C(C)C)[C@@H](C)O)C(C)C)C(N)=O` [GRP, gastrin-releasing peptide], for which the “affinity at BRS3” value is listed as “very low (high μM) affinity”.
Turning to neuromedin B [NMB], the “affinity at BRS3” value is “very low (high μM) affinity”.

For the next assay, the target named is T3, human bombesin receptor 3 (BRS3), endogenous in NCI-N417 cells (human) (UniProt P32247).
T3 sequence: T1 sequence (P32247 1-399) with T139A
The experiment in a line: cell-based or functional assay.
Details: not given
For the molecule Bombesin (peptide), the Efficacy; intracellular calcium (FLIPR) in NCI-N417 cells was determined as 23% and the pEG50 [sic, pEC50]; intracellular calcium (Fluo-3AM fluorescence, FLIPR) in NCI-N417 cells was < 5 -log10(M).
On to PG-L (peptide), for which the pEG50 [sic, pEC50]; intracellular calcium (Fluo-3AM fluorescence, FLIPR) in NCI-N417 cells is 5.54 -log10(M).
For Ranantensin (peptide), the pEG50 [sic, pEC50]; intracellular calcium (Fluo-3AM fluorescence, FLIPR) in NCI-N417 cells is 5.59 -log10(M).
In the case of [D-Phe^1, Nle^9]litorin (peptide), the pEG50 [sic, pEC50]; intracellular calcium (Fluo-3AM fluorescence, FLIPR) in NCI-N417 cells is 5.96 -log10(M).
On to “[D-Phe^6, Phe^13]BN(6-13) propylamide (peptide)”, for which the pEG50 [sic, pEC50]; intracellular calcium (Fluo-3AM fluorescence, FLIPR) in NCI-N417 cells was 6.83 -log10(M).
With “[D-Phe^6, βAla^11, Phe^13, Nle^14]Bombesin(6-14) (peptide)”, the pEG50 [sic, pEC50]; intracellular calcium (Fluo-3AM fluorescence, FLIPR) in NCI-N417 cells is 7.88 -log10(M).
[D-Phe^6]BN(6-13) propylamide (peptide): the pEG50 [sic, pEC50]; intracellular calcium (Fluo-3AM fluorescence, FLIPR) in NCI-N417 cells is 5.86 -log10(M).
Still for that read-out and setting: as for “[D-Tyr^6, βAla^11, Phe^13, Nle^14]Bombesin(6-14) (peptide)”, the figure is 8.02 -log10(M).
neuromedin C (NMC) (peptide): the Efficacy; intracellular calcium (FLIPR) in NCI-N417 cells turned out to be 20%.
For the molecule VPLPAGGGTVLTKMYPRGNHWAVGHLM (peptide, UniProt P07492 24-50, looked up, species assumed, ends and bridges not checked) [gastrin-releasing peptide (GRP)], the Efficacy; intracellular calcium (FLIPR) in NCI-N417 cells was found to be 23% and the pEG50 [sic, pEC50]; intracellular calcium (Fluo-3AM fluorescence, FLIPR) in NCI-N417 cells is < 5 -log10(M).
For the molecule GNLWATGHFM (peptide, UniProt P08949 47-56, looked up, species assumed, ends and bridges not checked) [neuromedin B (NMB)], the pEG50 [sic, pEC50]; intracellular calcium (Fluo-3AM fluorescence, FLIPR) in NCI-N417 cells is 5.65 -log10(M).
Still for that read-out and setting: under Ac-LWATGHFM (peptide, UniProt P08949 49-56, looked up, species assumed, ends and bridges not checked) [AcNMB(3-10)] stands 5.73 -log10(M).

The values are drawn from patent US20040023862A1, “Uses of bombesin receptor 3” (SmithKline Beedham p. l. c., priority 2000, published 2004).
